Laboratory results from patent US20250346601A1, “HETEROCYCLIC COMPOUNDS FOR THE PREVENTION AND THERAPY OF CIRCADIAN RHYTHM DISORDERS” (UNIVERZITA PALACKEHO V OLOMOUCI, priority 2022, published 2025).

Legend:
[1] = system: U2OS line transduced with the Bmal 1-Luc reporter; test: Period of the circadian rhythm in U2OS cells with Bmal1-Luc reporter (luminescence, cosinor analysis); type: cell-based, Human; conditions: for Period length ± standard error of the mean (expressed relative to control) at the indicated concentration: U2OS, DMSO control = 1.00
[2] = system: NIH3T3 line transfected with the Per2-Luc reporter; test: Period of the circadian rhythm in NIH3T3 fibroblasts with Per2-Luc reporter (luminescence, cosinor analysis); type: cell-based, mouse; conditions: for Period length ± standard error of the mean (expressed relative to the control) at the indicated concentration: NIH3T3, DMSO control = 1.00
[3] = system: explanted suprachiasmatic nuclei (SCN) of the hypothalamus; test: PER2::Luc rhythm in organotypic explants of suprachiasmatic nucleus (LumiCycle); type: cell-based, mouse; conditions: ratio of period 72 h after and 72 h before application
Protocol: FIG. 5. Compounds of formula I modulate the parameters of the circadian clock in the suprachiasmatic nucleus, the central circadian oscillator. It increases the period (left; measured as the ratio of period during 72 h after and 72 h before application of a compound) and induces phase shift (right; quantified by fitting a cosine curve before the application of a compound, extrapolating it beyond the time of application and subtracting the actual and extrapolated phases of the first full circadian cycle corrected by endogenous period of the explant, while designating phase advance as positive and phase delay as negative number in hours). (Example 14)
Male and female mPer2Luc mice (strain B6.129S6-Per2tm1Jt/J, JAX, USA) (Yoo et al., 2004; doi: 10.1073/pnas.0308709101) were maintained in a light/dark cycle with 12 hours of light and 12 hours of darkness (LD12: 12), killed between 12:00 and 15:00, i.e. 6-9 hours after turning on the lights, by rapid cervical dislocation under isoflurane anesthesia, their brains were removed and 250 μm thick SCN slices in ice-cold HBSS medium were prepared using a vibratome (Leica, Wetzlar, Germany). Two explants containing SCN from each brain were prepared. […]

[4] = system: explanted choroid plexus (ChP) of 4th brain ventricle; test: PER2::Luc rhythm in explanted choroid plexus (luminescence microscopy); type: cell-based, mouse; conditions: 200 uM, choroid plexus explant
Protocol: FIG. 6: Compound 4 affects the circadian clock in the explanted choroid plexus (CHP). (A) Individual PER2::Luc traces in analysed single-cell-sized regions of interest (ROIs) of explanted choroid plexus (CP) cultivated over 5 days ex vivo in the presence of DMSO (left) or compound 4 (right). Cosine curve below the traces indicates average oscillation across the whole explant; see dramatic increase of period in the presence of 200 uM compound 4. […] (Example 15)
Male mPer2Luc were kept and sacrificed under the same conditions as above. Their brains were removed, choroid plexus was dissected from the 4th ventricle in ice-cold HBSS medium and placed on Millicell Culture Inserts inside 6-well plate with test compound or DMSO vehicle in 1 ml air-buffered recording medium supplemented with 100 U/ml penicillin, 100 ug/ml streptomycin (Sigma-Aldrich, St. Luis, MO, USA), 1x GlutaMAX (ThermoFisher, Waltham, MA, USA), 1x B27 (ThermoFisher) and 0.1 mM Luciferin-EF (Promega Madison, WI, USA). The were placed inside Luminoview LV200 Miscroscope (Olympus, USA) with liquid-cooled EM-CCD camera (Hamamatsu) and luminescence was recorded by 10 min exposure every 1h.

Row | Structure (SMILES) | Period length ± standard error of the mean (expressed relative to control) at the indicated concentration ([1]; 20 μM) | Period length ± standard error of the mean (expressed relative to the control) at the indicated concentration ([2]; 50 μM) | Period length ± standard error of the mean (expressed relative to control) at the indicated concentration ([1]; 50 μM) | further results
1 | c1coc(CNc2ncnc3c2ncn3C2CCCCO2)c1 (stereo not drawn) [Compound 4, N-(furan-2-ylmethyl)-9-(tetrahydro-2H-pyran-2-yl)-9H-purin-6-amine] | 20 μM: 1.08 ± 0 | 50 μM: 1.23 ± 0.03 |  | Circadian rhythm period (in words) [3]: increases the circadian rhythm period; Period of PER2::Luc (in words) ([4]; 5 days ex vivo, vs DMSO): significantly (t-test, P<0.0001) increased; Phase of PER2::Luc (in words) ([4]; polar histogram of ROIs vs DMSO): dramatically affected
2 | c1ccc(Cn2cnc3c(NCc4ccco4)ncnc32)cc1 [9-benzyl-N-(furan-2-ylmethyl)-9H-purin-6-amine, reference compound] |  |  |  | Period length ± standard error of the mean (expressed relative to control) at the indicated concentration ([1]; 10 μM): 10 μM: 1 ± 0.02; Period length ± standard error of the mean (expressed relative to the control) at the indicated concentration ([2]; 10 μM): 10 μM: 1 ± 0.02
3 | c1coc(CNc2ncnc3nc[nH]c23)c1 [N^6-furfuryladenine, reference compound] | 20 μM: 1.02 ± 0.01 | 50 μM: 1.06 ± 0.02 |  | Effect on the period of the circadian rhythm (in words) ([1]; U2OS Bmal1-Luc): minimal effect; Effect on the period of the circadian rhythm (in words) ([2]; NIH3T3 Per2-Luc): much smaller effect
4 | CC(C)(C)OCCn1cnc2c(NCc3ccco3)ncnc21 [9-[2-(tert-butoxy)ethyl]-N-(furan-2-ylmethyl)-9H-purin-6-amine, reference compound] |  | 50 μM: 0.9 ± 0.06 | 50 μM: 1 ± 0.01 | 
5 | CCOCn1cnc2c(NCc3ccco3)ncnc21 [9-(ethoxymethyl)-N-(furan-2-ylmethyl)-9H-purin-6-amine, reference compound] |  | 50 μM: 1 ± 0.03 | 50 μM: 1.01 ± 0.01 | 
6 | CN(C)CCNc1nc(NCc2ccco2)c2ncn(C3CCCCO3)c2n1 (stereo not drawn) [Compound 44] |  | 50 μM: 1.72 ± 0.04 |  | Period length ± standard error of the mean (expressed relative to control) at the indicated concentration ([1]; 1 μM): 1.05 ± 0.01; Period length ± standard error of the mean (expressed relative to control) at the indicated concentration ([1]; 5 μM): 1.28 ± 0.02
